Entries after “also recorded” stand apart in the source; their conditions may differ.
Columns and labels:
HASMCs = assay type: cell-based, human; settings: up to 100 nM (200 nM for A4, A7, A9)
HAECs = assay type: cell-based, human; settings: up to 50 nM (100 nM for A4, A7, A9)
Method: For cell proliferation assay, HAECs were divided at a concentration of 4000 cells/well in a final volume of 100 μl onto a 96-well plate including a siRNA-transfection reagent mixture. After siRNA-transfected for 24 hours, the cells were serum-starved for 18 hours, and then placed in an EBM-2 basal medium supplemented with VEGF-A165 (25 ng/ml, Cat no. 293-VE, R&D systems) for additional 24 hours. The extent of cell proliferation was measured using a WST-1 cell proliferation assay kit (Roche Diagnostics, USA), and the number of cells was expressed as absorbance at 450 nm, which was averaged from 3 wells after subtracting the turbidity at 600 nm.
The cell migration assay was performed in a 24-well Transwell culture chamber (Costar; 8-μm pore size). The bottom of the filter was coated with gelatin B (1 mg/ml) and air-dried for 1 hour. HAECs (6×10^3) were added to upper chambers including siRNA-transfection complexes. After 24 hours, the siRNA-transfected HAECs were serum-starved overnight. A solution of VEGF-A (25 ng/ml) was prepared in a basal medium including 0.5% bovine serum albumin (BSA), and added to bottom chambers. The upper chamber wells were each filled with a basal medium including 0.5% BSA. The Transwell chamber was incubated for 8 hours under the condition of 37° C./5% carbon dioxide. After the incubation, the non-migrated cells at the top of the filter were removed, and the cells that migrated onto the bottom of filter were fixed and stained with 0.6% hematoxylin and 0.5% eosin. The stained cells were photographed and counted. The number of migrating cells was averaged from 3 wells.

[1] = system: yeast thioredoxin (Trx) / yeast thioredoxin reductase (TR) system; experiment: Peroxidase activity assay (hydrogen peroxide reduction), Trx/TR system; assay type: biochemical
Method: The peroxidase activity assay for the epidithiodioxopiperazine derivatives according to the present invention (hereinafter, referred to as ETP compounds) was performed according to known methods [Korean Patent No. 10-0953326]. A standard peroxidase reaction for spectrophotometric assay was carried out using a 200 μl reaction mixture of 1 mM EDTA-containing 50 mM Hepes-NaOH buffer solution (pH 7.0) including 250 μM NADPH, 3 μM yeast thioredoxin (Trx), 1.5 μM yeast thioredoxin reductase (TR), 25 μM ETP compound and […] of hydrogen peroxide. For the comparison with a glutathione (GSH)-dependent peroxidase reaction, GSH (1 mM) and yeast glutathione reductase (GSH reductase; GR) (1 Unit) were added instead of yeast Trx and TR. Each reaction was initiated by adding hydrogen peroxide, and the NADPH oxidation was monitored for 12 minutes at 30° C. according to absorbance decrease at 340 nm using an Agilent UV8453 spectrophotometer (Hewlett Packard, USA). The initial reaction rate was calculated using the linear portion of the curve and expressed as the amount of NADPH oxidized per minute.
The chemical feature of the epidithiodioxopiperazine compound of the present invention or its derivatives is the intramolecular disulfide bridge present in the epidithiodioxopiperazine ring moiety. Cellular peroxidase reduces hydrogen peroxide utilizing the electrons derived from NADPH via two electron-transfer routes, that is, Trx/TR or GSH/GR, therefore, spectrophotometric assay was performed for the hydrogen peroxide-reducing activity in the presence of each system, and the results are shown in FIGS. 1 to 5.

[2] = system: balloon-injured rat carotid artery; experiment: Balloon-injury model of rat carotid artery; assay type: in vivo; settings: local administration to the lumen through catheter, 30 minutes; ETP derivatives 200 nM; 10 days recovery
Method: Animal experiments were performed in compliance with the guidelines of Institutional Animal Care and Use Committee (IACUC) of the Ewha Womans University. Balloon injury was created using an infiltrated 2 F Fogarty balloon catheter in the left common carotid artery as follows: after the ten-week-old male Sprague-Dawley rats were anaesthetized by isoflurane gas (N2O:O2/70%:30%) inhalation, the left external carotid artery was exposed, and its branches were electrocoagulated. A catheter was pushed 1 cm in through the transverse arteriotomy of the external carotid artery, and the endothelial denudation was achieved by three passes along the common carotid artery. After the catheter was removed, the punched area was sealed and the clapped common carotid artery was opened for resuming the blood flow. Unless otherwise stated, the rats were recovered in a cage for 10 days, and subjected to histological and immunological analyses.
Rats were anesthetized, and the common carotid artery was excised after transcardiac perfusion-fixation with a heparinized saline solution containing 3.7% formaldehyde. The vessels were paraffin embedded and sectioned using a rotary microtome (Leica RM2255). Two serial tissue sections (4 μm in thickness) were obtained from the middle area of common carotid arteries, and stained with haematoxylin and eosin (HE). The luminal, internal elastic laminal, and external elastic laminal areas were measured using NIH Image v1.62. The intimal and medial areas were determined by subtracting the luminal area from the internal elastic area and subtracting the internal elastic area from the external elastic area. The values from the two serial sections for each rat were averaged for analysis.
For the in vivo injection of siRNA, a siRNA mixture specific to rat PrxII (200 nM) was premixed with a siPORT™ NeoFX™ reagent according to the instructions of the manufacturer (Ambion). Immediately after the balloon injury, the siRNA-injected mixture (200 μL) was injected through a catheter after briefly washed with Opti-MEM. After the incubation for 15 minutes, the blood flow was resumed. A siGLO-Red (Dharmacon), which is fluorescent dye-conjugated control siRNA, was used for optimizing in vivo injection efficiency. Similarly, the ETP compound (200 nM in DMSO) was injected through a catheter and incubated for 30 minutes.
Immunohistochemistry for the overoxidized 2-Cys Prxs was performed on the paraffin sections using an anti-Prx-SO2/3 antibody (1:1000 dilution). Briefly, the sections were de-waxed in xylene and rehydrated in ethanol, and subsequently the antigen retrieval was performed by boiling in a citric buffer solution (pH 6.0). After that, the sections were incubated with a primary antibody for 48 hours at 4° C. After washing three times with a phosphatebuffered saline solution, the sections were incubated with a peroxidase-conjugated secondary antibody and stained with a 3′,3′-diaminobenzidine (DAB) substrate solution. For negative staining, the Prx-502/3 antibody was blocked with the corresponding antigenic peptide (DFTFVC(SO2/3)PTEI). For indirect immunofluorescence staining, the paraffin sections were blocked with 5% normal rabbit serum (Vector Laboratories) in PBST (a PBS solution of 0.3% Triton X-100) for 1 hour at room temperature. The sections were then incubated overnight at 4° C. with the […] against rat smooth muscle α-actin (1:300 dilution) and rat CD31 (PECAM-1, 1:200 dilution). The nuclei were labeled with DAPI. After several PBST washes, the samples were incubated for 2 hours at room temperature with Alexa Fluor 568-conjugated donkey anti-mouse and Alexa Fluor 488-conjugated donkey anti-rabbit IgG antibodies. The fluorescence images were recorded on three random fields per tissue section at a screen magnification of 100× using a LSM 510 Meta confocal microscope equipped with argon and helium-neon lasers.
The paraffin sections were incubated for 10 minutes in PBS containing 0.1% Triton X-100. […]

O=C1NC2SSC1NC2=O [Compound A1, 2,3-dithia-5,7-diazabicyclo[2.2.2]octane-6,8-dione]
proliferation and chemotactic transmigration of HASMCs in response to PDGF, enhanced by PrxII knockdown (HASMCs): excellent activities
VEGF-induced proliferation and chemotactic transmigration of HAECs, impaired by PrxII knockdown (HAECs): excellent activities

CN1C(=O)C2SSC1C(=O)N2C [Compound A2, 5,7-dimethyl-2,3-dithia-5,7-diazabicyclo[2.2.2]-octane-6,8-dione]
proliferation and chemotactic transmigration of HASMCs in response to PDGF, enhanced by PrxII knockdown (HASMCs): excellent activities
VEGF-induced proliferation and chemotactic transmigration of HAECs, impaired by PrxII knockdown (HAECs): excellent activities

CN1C(=O)C(S)N(C)C(=O)C1S (centres unmarked) [Compound A2R, 3,6-dimercapto-1,4-dimethylpiperazine-2,5-dione]
proliferation and chemotactic transmigration of HASMCs in response to PDGF, enhanced by PrxII knockdown (HASMCs): no significant changes
VEGF-induced proliferation and chemotactic transmigration of HAECs, impaired by PrxII knockdown (HAECs): no significant changes
initial reaction rate for hydrogen peroxide reduction compared to the corresponding oxidized type [1]: higher intial reaction rates

CN1C(=O)C2(C)SSC1C(=O)N2C (centres unmarked) [Compound A3, 1,5,7-trimethyl-2,3-dithia-5,7-diazabicyclo[2.2.2]octane-6,8-dione]
proliferation and chemotactic transmigration of HASMCs in response to PDGF, enhanced by PrxII knockdown (HASMCs): excellent activities
VEGF-induced proliferation and chemotactic transmigration of HAECs, impaired by PrxII knockdown (HAECs): excellent activities

COc1ccc(CN2C(=O)C3SSC2C(=O)N3Cc2ccc(OC)cc2)cc1 [Compound A4, 5,7-bis(4-methoxybenzyl)-2,3-dithia-5,7-diazabicyclo[2.2.2]octane-6,8-dione]
proliferation and chemotactic transmigration of HASMCs in response to PDGF, enhanced by PrxII knockdown (HASMCs): insignificant activities; also recorded: low activities
VEGF-induced proliferation and chemotactic transmigration of HAECs, impaired by PrxII knockdown (HAECs): insignificant activities; also recorded: low activities

C=CCN1C(=O)C2SSC1C(=O)N2CC=C [Compound A5, 5,7-diallyl-2,3-dithia-5,7-diazabicyclo[2.2.2]octane-6,8-dione]
proliferation and chemotactic transmigration of HASMCs in response to PDGF, enhanced by PrxII knockdown (HASMCs): excellent activities
VEGF-induced proliferation and chemotactic transmigration of HAECs, impaired by PrxII knockdown (HAECs): excellent activities

C=CCN1C(=O)C(S)N(CC=C)C(=O)C1S (centres unmarked) [Compound A5R, 3,6-dimercapto-1,4-diallylpiperazine-2,5-dione]
proliferation and chemotactic transmigration of HASMCs in response to PDGF, enhanced by PrxII knockdown (HASMCs): no significant changes
VEGF-induced proliferation and chemotactic transmigration of HAECs, impaired by PrxII knockdown (HAECs): no significant changes
initial reaction rate for hydrogen peroxide reduction compared to the corresponding oxidized type [1]: higher intial reaction rates

COc1ccc(CN2C(=O)C3NC(=O)C2SS3)cc1 (centres unmarked) [Compound A6, 5-(4-methoxybenzyl)-2,3-dithia-5,7-diazabicyclo[2.2.2]octane-6,8-dione]
proliferation and chemotactic transmigration of HASMCs in response to PDGF, enhanced by PrxII knockdown (HASMCs): moderate activities
VEGF-induced proliferation and chemotactic transmigration of HAECs, impaired by PrxII knockdown (HAECs): moderate activities

O=C1C2SSC(C(=O)N2C(c2ccccc2)c2ccccc2)N1C(c1ccccc1)c1ccccc1 [Compound A7, 5,7-dibenzhydryl-2,3-dithia-5,7-diazabicyclo[2.2.2]octane-6,8-dione]
proliferation and chemotactic transmigration of HASMCs in response to PDGF, enhanced by PrxII knockdown (HASMCs): insignificant activities; also recorded: low activities
VEGF-induced proliferation and chemotactic transmigration of HAECs, impaired by PrxII knockdown (HAECs): insignificant activities; also recorded: low activities

CCCCN1C(=O)C2SSC1C(=O)N2CCCC [Compound A8, 5,7-dibutyl-2,3-dithia-5,7-diazabicyclo[2.2.2]octane-6,8-dione]
proliferation and chemotactic transmigration of HASMCs in response to PDGF, enhanced by PrxII knockdown (HASMCs): excellent activities
VEGF-induced proliferation and chemotactic transmigration of HAECs, impaired by PrxII knockdown (HAECs): excellent activities

COCCCN1C(=O)C2SSC1C(=O)N2CCCOC [Compound A9, 5,7-bis(3-methoxypropyl)-2,3-dithia-5,7-diazabicyclo[2.2.2]octane-6,8-dione]
proliferation and chemotactic transmigration of HASMCs in response to PDGF, enhanced by PrxII knockdown (HASMCs): insignificant activities; also recorded: moderate activities
VEGF-induced proliferation and chemotactic transmigration of HAECs, impaired by PrxII knockdown (HAECs): insignificant activities; also recorded: moderate activities

CS[C@]1(CO)C(=O)N2[C@H]3C(=CC=C[C@@H]3O)C[C@@]2(SC)C(=O)N1C [bis(methylthio)gliotoxin, Bis(methylthio)gliotoxin]
intimal hyperplasia (ratio of intima versus media, HE staining) [2]: did not suppress
hydrogen peroxide-reducing (peroxidase) activity in the presence of a Trx/TR system, in words [1]: not observed

Reference: patent US10450327B2, “Epidithiodioxopiperazine compound or its derivatives, and the use thereof” (priority 2011, dated 2019)
